# From patent publication US20100196512A1, “Treatment of Non-Oral Biological Tissue with Chlorine Dioxide” (priority 2009, published 2010)
# Tests used:
# [1] = system: methicillin resistant Staphylococcus aureus (MRSA) biofilm; experiment: Kill of MRSA biofilm grown on ceramic disks by chlorine dioxide solution; assay type: cell-based
# Description: (§1) Chlorine dioxide treatment involves exposing micro-organisms to chlorine dioxide for a period of time. Treatment conditions, often called the “dose or dosage” of chlorine dioxide, can be determined by calculating the integral of the chlorine dioxide concentration as a function of time, C(t), over the treatment time of use:
# (§2) In systems where the chlorine dioxide concentration is generally constant over the treatment time (e.g., varies by less than ±10% relative) or varies linearly over the treatment time, an average chlorine dioxide concentration may be calculated by averaging the starting and ending concentrations and then multiplying that average chlorine dioxide concentration during an exposure period by the time of exposure (Average Concentration X Time). Dose is commonly given in units of ppm-minutes.
# (§3) A series of experiments were conducted to estimate the dose of chlorine dioxide needed to kill bacterial biofilms consisting of Pseudomonas aeruginosa (PA), methicillin resistant Staphylococcus aureus (MRSA), or a combination of both.
# (§4) Bacterial biofilms were grown for between 7 and 10 days on non-porous ceramic disks in a spinning disk biofilm reactor. The reactors were inoculated with PA, MRSA, or a mixture of MRSA and PA bacteria to produce PA, MRSA, or mixed PA/MRSA biofilms respectively.
# (§5) Chlorine dioxide solutions were produced at different nominal concentrations using ASEPTROL® S-Tab 10 tablets, and the exact concentrations were then measured using a Hach Model 2400 UV/Vis spectrophotometer in accordance with the manufacturer's instructions. Pairs of biofilm-containing disks were immersed for different times in solutions of different chlorine dioxide concentrations, neutralized with dilute sodium thiosulfate solution, and then plated to determine the number of surviving bacteria on each disk. Two untreated disks were also exposed to neutralizing solution and plated to determine the starting bacterial counts. In all tests, the baseline bacterial counts were in the range of 10^7 to 10^7.5 colony-forming units per disk (cfu/disk). A one log reduction refers to reducing the cfu/disk by one order of magnitude, e.g., a reduction from 10^7.1 cfu/disk to 10^6.1 cfu/disk. Accordingly, a substantially complete kill is achieved if the log reduction of bacteria is about 7 to 7.5.
# (§6) The table summarizes the test conditions used in the different experiments, and presents the results in terms of log reduction of the different bacterial organisms. In the case of mixed PA/MRSA biofilms, results are given as total bacteria.
# [2] = system: Pseudomonas aeruginosa (PA) biofilm; experiment: Kill of PA biofilm grown on ceramic disks by chlorine dioxide solution; assay type: cell-based
# Description: as §1, §2, §3, §4, §5, §6
# [3] = system: mixed PA/MRSA biofilm (total bacteria); experiment: Kill of mixed PA/MRSA biofilm grown on ceramic disks by chlorine dioxide solution; assay type: cell-based, Staphylococcus aureus and Pseudomonas aeruginosa; settings: for Log Reduction in Organism Count: MRSA + PA biofilm, total bacteria
# Description: as §1, §2, §3, §4, §5, §6
smiles,measurement,setting,value
"[O][Cl+][O-] [ClO2, chlorine dioxide]",Log Reduction in Organism Count,"[1]; Sample 1, exposure 1.0 minutes, ClO2 208 ppm, 208 ppm-min",5.5
same,Log Reduction in Organism Count,"[1]; Sample 2, exposure 5.0 minutes, ClO2 204 ppm, 1020 ppm-min",7.1
same,Log Reduction in Organism Count,"[1]; Sample 3 (second line), exposure 30.0 minutes, ClO2 40 ppm, 1200 ppm-min",5.1
same,Log Reduction in Organism Count,"[1]; Sample 3, exposure 10.0 minutes, ClO2 45 ppm, 450 ppm-min",5.5
same,Log Reduction in Organism Count,"[1]; Sample 4, exposure 30.0 minutes, ClO2 175 ppm, 5250 ppm-min",7.1
same,dose for a kill of about 5 orders of magnitude (5 log),[1]; see Sample 1,greater than 200 ppm-min
same,Log Reduction in Organism Count,"[2]; Sample 6, exposure 0.5 minutes, ClO2 200 ppm, 100 ppm-min",5.9
same,Log Reduction in Organism Count,"[2]; Sample 7, exposure 5.0 minutes, ClO2 43 ppm, […]-min",5.7
same,Log Reduction in Organism Count,"[2]; Sample 8, exposure 5.0 minutes, ClO2 187 ppm, 935 ppm-min",7.5
same,Log Reduction in Organism Count,"[2]; Sample 9, exposure 10.0 minutes, ClO2 37 ppm, 370 ppm-min",7.5
same,Log Reduction in Organism Count,"[2]; Sample 10, exposure 50.0 minutes, ClO2 35 ppm, 1750 ppm-min",7.5
same,Log Reduction in Organism Count,"[2]; Sample 11, exposure 50.0 minutes, ClO2 166 ppm, 8300 ppm-min",7.5
same,dose for a kill of about 5 orders of magnitude (5 log),[2]; see Sample 7,greater than 200 ppm-min
same,Log Reduction in Organism Count,"[3]; Sample 12, exposure 10.0 minutes, ClO2 52 ppm, 520 ppm-min",5.5
same,Log Reduction in Organism Count,"[3]; Sample 13, exposure 30.0 minutes, ClO2 52 ppm, 1560 ppm-min",7.4
same,Log Reduction in Organism Count,"[3]; Sample 14, exposure 1.0 minutes, ClO2 181 ppm, 181 ppm-min",5.1
same,Log Reduction in Organism Count,"[3]; Sample 15, exposure 5.0 minutes, ClO2 160 ppm, 800 ppm-min",7.4
same,Log Reduction in Organism Count,"[3]; Sample 16, exposure 30.0 minutes, ClO2 160 ppm, 4800 ppm-min",7.4
same,dose for a kill of about 5 orders of magnitude (5 log),"[3]; mixed PA/MRSA biofilm, see Sample 12",greater than 200 ppm-min
